Measurements: patent US7829548B2, “Compounds useful in the treatment of HIV” (Medivir AB, priority 2004, dated 2010)
pEC50: −log10 of the molar value. Read-outs that look alike come from different tables or passages of the source.

Legend:
[1] = system: HIV-1 isolates from patient plasma samples; format: cell-based; conditions: for FC value: isolate 4 (K65R+M184V, R211S, K219E)
Procedure: The susceptibility of 2′,3′-dideoxy-3′-C-hydroxymethyl-cytosine on HIV-1 isolates from patient plasma samples that bear typical TAM primer rescue mutant resistant genotypes is determined by the commercially available PhenoSense HIV assay (described in Petropoulos, C J et al., (2000) Antimicrob. Agents Chemother. 44:920-928 and performed by ViroLogics, Inc). The assay is performed by amplifying the protease (PR)-RT segment of the HIV pol gene from patient plasma and inserting the amplification products into a modified HIV-1 vector derived from an NL4-3 molecular clone.
Viral stocks are prepared by co-transfecting 293 cell cultures with recombinant viral DNA vector and an expression vector that produces the amphotropic murine leukemia virus envelope proteins. Pseudotyped virus particles are harvested from the transfected cell cultures and are used to infect fresh 293 cell cultures. The recombinant viral DNA contains a luciferase gene cassette within the HIV env gene region and the production of luciferase in target cells is dependent on the completion of one round of virus replication. Drug susceptibility is measured by adding serial concentrations of the compound of the invention and the reference compounds to the cells. Drugs that inhibit virus replication reduce luciferase signal in a dose-dependent manner, providing a quantitative measure of drug susceptibility.

[2] = Release of parent compound from prodrugs in pooled human plasma; format: in vitro ADME; conditions: 37C, spiked with 5 uM of the prodrug
Procedure: Confirmation that the prodrugs of the invention convert completely to active 2′3′-dideoxy-3′-C-hydromethylcytosine parent compound can be assessed by monitoring the appearance of the parent compound in pooled human plasma, 37C, spiked with 5 uM of the prodrug: […]

[3] = system: TAM primer rescue-related resistant HIV isolates; assay: Drug susceptibility assay in PBMC culture (p24 antigen); format: cell-based, HIV-1
Procedure: The antiviral performance of the compound of the invention against additional TAM primer rescue-related resistant HIV isolates was assayed in a PBMC culture. Isolates of HIV-1 were generated and expanded to high titer by co-cultivation of infected patient PBMC with PHA-stimulated donor PBMC (Virology Manual for ACTG HIV Laboratories). The cell-free supernatants were harvested, sequenced, and stored in aliquots at −70° C. for drug susceptibility assays.
In vitro drug susceptibility assays were performed using a modified ACTG/DOD consensus method (Virology Manual for ACTG HIV laboratories). PBMCs were pre-infected with viral stocks for 4 hrs at […] in a humidified atmosphere of 5% CO2 following 4 hr incubation. Infected cells were washed twice in media and pipetted into a microtiter plate with eight serial drug dilutions. Each well contained 100,000 pre-infected PBMC and all drug dilutions were made with cell culture medium. The drug dilutions were chosen to span the 50% inhibitory concentration (IC50) for each single drug. Control wells containing cells and virus were co-incubated on each plate. After a 7-day incubation at […] in a […] atmosphere of 5% CO2, viral growth was determined using a p24 antigen assay on supernatants (Abbott Laboratories, Chicago, USA). The percent inhibition of viral growth compared to the control well, which contained no drug, was calculated and expressed as fold changes (reductions in compounds susceptibility) compared to the control well. The reference compound AZT was run in parallel with the compound of the invention.
A cluster of representative of primer rescue-related mutant virus was selected that harbors the essential feature of primer rescue-related TAM resistant RT mutations. Strains with mutations at position M41L, D67N, K70R, L210W, T215Y/F and K219Q/E in various combinations with or without discriminative mutant M184V were used as indicated in Table 4.

HIV = assay: Antiretroviral ED50 in human H9 cells; format: cell-based; conditions: Human immunodeficiency virus 1
HIV-1 RT [4] = molecular target: T1, HIV-1 RT (Human immunodeficiency virus type 1 group M subtype B, UniProt P04585); assay: DNA chain termination assay (M13mp18 template, gel autoradiography); format: biochemical
Procedure: Two deoxycytosine analogues, the conventional NRTI ddC lacking a 3′-hydroxyl group function and the compound of the invention, were subjected to a DNA chain termination assay in which DNA prolongation was conducted with M13mp18 single strand DNA template pre-annealed to an oligo-DNA primer (the forward primer sequence of 5′-[…]-3′ (SEQ ID NO:2) was purchased from Amersham UK. M13mp18 single strand […] was annealed to this oligo-DNA primer giving a final concentration of 1 mg/ml in a buffer containing 10 mM Tris-HCl, pH 7.9 and 100 mM NaCl, and was stored in aliquots at −20° C. DNA polymerization was conducted using this annealed template/primer, HIV-1 RT and natural dNTPs in a reaction incubated at 37° C. for 25 min. The reaction was stopped by the addition of Stop solution containing 95% Formamide, 20 mM EDTA, 0.05% Bromophenol Blue and 0.05% Xylene Cyanol FF (purchased from USB, United States Biochemical via Amersham UK). After denaturing the DNA products, the elongated DNA fragment was electrophoresed on an 8.0% polyacrylamide gel and visualized using autoradiography.
The assay included a negative control (the native dNTP), dual positive ddCTP controls (ddCTP, 8 uM from Sigma Chemical, St. Louis, Miss., USA and ddCTP obtained from a USB sequence kit United States Biochemical via Amersham UK). Various molecule ratios of the triphosphate of the compound of the invention and the natural dNTP were used. After the reaction was conducted as described above, the denatured DNA fragments from each individual reaction was loaded onto an 8.0% polyacrylamide gel in the following order: • 1—Negative control • 2—1st Positive control 8 μM ddCTP (purchased from Sigma) • 3—20 μM inventionTP in 200 μM dNTP • 4—30 μM inventionTP in 300 μM dNTP • 5—40 μM invention TP in 400 μM dNTP • 6—50 μM invention TP in 500 μM dNTP • 7—20 μM invention TP in 80 μM dNTP • 8—40 μM invention TP in 80 μM dNTP • 9—Empty space (no loading) • 10—2nd positive control ddCTP (from USB sequence kit)

HIV-1 RT [5] = molecular target: T1, HIV-1 RT; assay: Residual free 3′-OH primer terminus after pre-incubation, second round of RT-catalysed DNA polymerization; format: biochemical; conditions: pre-incubation 10 and 30 minutes; ddCTP compared to the triphosphate of the compound of the invention
Procedure: The presence of a 3′-hydroxymethyl group in the compound of the invention should, in principle, support incorporation and elongation into the viral nucleic acid catalyzed by HIV-1 RT. A rate-limiting amount of primer-template (16S and 23S ribosomal RNA annealed with an oligo-DNA primer with the sequence of 5′-[…]-3′ (SEQ ID NO:1), custom synthesized by INNOVAGEN) was used. This was pre-incubated with 100 μM (55 times the IC50) 2′-3′-dideoxy-3′-C-hydroxymethylcytidine-triphosphate, 6.0 μM ddC-triphosphate (54 times the IC50 ddCTP), 20 μM deoxycytosine-triphosphate (20 times the Km dCTP) or the control (H2O). At the time points indicated (0, 10, 30, 60, and 120 min), the DNA polymerization process was stopped by inactivation of the RT at 70° C. for 2 min during the first round of DNA polymerization (FIG. 9).
The residual amount of primer-template directly reflects the availability of free 3′-OH primer terminus present after the first round of reaction. […] The availability of free 3′-OH at the primer terminus in the residual amount of primer-template that supported further DNA polymerization was measured and expressed as a function of pre-incubation time (FIG. 10).

[6] = patient isolates 20 and 21, isolate not specified, compared to wildtype
[7] = primer rescue mutant isolates of Table 4

## Cc1cn([C@H]2C=C[C@@H](CO)O2)c(=O)[nH]c1=O [d4T, stavudine]
[1]
  FC value: 0.71
[1]; [6]
  fold reduction in susceptibility: lost potency

## CCCCC(=O)OCC1CC(n2ccc(N)nc2=O)OC1COC(=O)CCCC (centres unmarked) [Compound 22, 5′-O-pentanoyl-2′-3′-dideoxy-3-C-pentanoyl-oxymethylcytosine]
[2]
  Concentration of parent uM 5 min: 4.0 µM
  Concentration of parent uM 20 min: 4.5 µM
  Concentration of parent uM O min: 4.2 µM

## CCCCC(=O)OC[C@H]1C[C@H](n2ccc(N)nc2=O)O[C@@H]1CO [Compound 24, 2′,3′-dideoxy-3′-C-pentanoyl-oxymethylcytosine]
[2]
  Concentration of parent uM 5 min: 4.2 µM
  Concentration of parent uM 20 min: 4.4 µM
  Concentration of parent uM O min: 3.9 µM

## Nc1nc(=O)n([C@@H]2CS[C@H](CO)O2)cc1F [FTC, emtricitabine]
[1]
  FC value: > 40
[1]; [6]
  fold reduction in susceptibility: lost potency

## CC(C)[C@H](N)C(=O)O[C@@H](C)C(=O)OCC1CC(n2ccc(N)nc2=O)OC1CO (stereo partly drawn) [Compound 14, 2′,3′-dideoxy-3′-C-[2-S-(L-valyloxy)-propionyl]-oxymethylcytosine]
[2]
  Concentration of parent uM 5 min: 4.5 µM
  Concentration of parent uM 20 min: 4.6 µM
  Concentration of parent uM O min: 4.6 µM

## Nc1ccn([C@H]2C[C@H](CO)[C@@H](CO)O2)c(=O)n1 [compound of the invention, 2′,3′-dideoxy-3′-C-hydroxymethylcytidine]
[1]
  FC value: 3.88
[1]; patient isolate 19 (M184V + TAMs), compared to wild type HIV
  fold difference in susceptibility: 1.78 fold
[1]; patient isolate 20 (TAM), compared to wild-type HIV
  fold reduction in susceptibility: 1.0 fold
[1]; patient isolate 21 (TAM), compared to wild-type HIV
  fold reduction in susceptibility: < 1.0 fold
[1]; patient isolate 32 (T69S + VG insertion)
  fold reduction in susceptibility: 2.79 fold
[1]; patient isolate 35 (T69S + VA insertion)
  fold reduction in susceptibility: 4.29 fold
[1]; patient isolates 31, 32 and 35 (T69S + XX + TAMs), compared with six reference antivirals
  change in drug susceptibility: smallest change in drug susceptibility
[3]; [7]
  FC value: ≤ 2.7
HIV
  pEC50: ~8.00

## CC(C)[C@H](N)C(=O)OCC1CC(n2ccc(N)nc2=O)OC1COC(=O)[C@@H](N)C(C)C (stereo partly drawn) [Compound 8, 5′-O-L-valyl-2′,3′-dideoxy-3′-C-L-valyloxymethylcytosine]
[2]
  Concentration of parent uM 5 min: 0.2 µM
  Concentration of parent uM 20 min: 0.3 µM
  Concentration of parent uM O min: 0.1 µM

## Nc1ccn([C@H]2C[C@H](CO)[C@@H](COP(=O)(O)OP(=O)(O)OP(=O)(O)O)O2)c(=O)n1 [inventionTP, 2′-3′-dideoxy-3′-C-hydroxymethylcytidine-triphosphate]
HIV-1 RT [4]; lane 3, 20 μM TP / 200 μM dNTP
  chain termination pattern: led to chain termination at the site after/behind 2′3′-deoxydeoxycytosine site
HIV-1 RT [4]; lane 4, 30 μM TP / 300 μM dNTP
  chain termination pattern: led to chain termination at the site after 2′3′-deoxydeoxycytosine site
HIV-1 RT [4]; lane 5, 40 μM TP / 400 μM dNTP
  chain termination pattern: lead to chain termination at the site after 2′3′-deoxydeoxycytosine site
HIV-1 RT [4]; lane 6, 50 μM TP / 500 μM dNTP
  chain termination pattern: No specific pause (chain termination pattern) was found
HIV-1 RT [4]; lane 7, 20 μM TP / 80 μM dNTP
  chain termination pattern: led to a more pronounced chain termination effect at the site after the 2′3′-deoxydeoxycytosine site
HIV-1 RT [4]; lane 8, 40 μM TP / 80 μM dNTP
  chain termination pattern: led to a more pronounced chain termination effect at the site after the 2′3′-deoxydeoxycytosine site

## C[C@H](Cn1cnc2c(N)ncnc21)OCP(=O)(O)O [TNF, tenofovir]
[1]; [6]
  fold reduction in susceptibility: lost potency

## CC(C)[C@H](N)C(=O)OCC1CC(n2ccc(N)nc2=O)OC1CO (stereo partly drawn) [Compound 5, 2′-3′-dideoxy-3-C-(L-valyl-oxymethyl)cytosine]
[2]
  Concentration of parent uM 5 min: 0.4 µM
  Concentration of parent uM 20 min: 1.0 µM
  Concentration of parent uM O min: 0 µM

## Nc1ccn([C@@H]2CS[C@H](CO)O2)c(=O)n1 [Compound 3TC, lamivudine]
[1]
  FC value: > 200

## Cc1cn([C@H]2C[C@H](N=[N+]=[N-])[C@@H](CO)O2)c(=O)[nH]c1=O [AZT, zidovudine]
[1]
  FC value: 1.11
[3]; isolate 7086 (T215V)
  FC value: 3.0
[3]; [7]
  FC value: a couple of hundred folds

## Nc1nc(NC2CC2)c2ncn([C@H]3C=C[C@@H](CO)C3)c2n1 [ABC, abacavir]
[1]
  FC value: > 9.0
[1]; [6]
  fold reduction in susceptibility: lost potency

## Nc1ccn([C@H]2CC[C@@H](COP(=O)(O)OP(=O)(O)OP(=O)(O)O)O2)c(=O)n1 [ddCTP, ddC-triphosphate, reference compound]
HIV-1 RT [4]; lane 2, 1st positive control, 8 μM
  chain termination pattern: led to chain termination at the anticipated 2′3′-deoxydeoxycytosine sites
HIV-1 RT [4]; lane 10, 2nd positive control (USB sequence kit)
  chain termination pattern: led to chain termination at anticipated 2′3′-deoxydeoxycytosine sites
HIV-1 RT [5]
  residual 3-OH primer terminus left to support further DNA prolongation: less than half
